Entries after “also recorded” stand apart in the source; their conditions may differ.
What was measured:
SK1 [1] = target: T1, SK1 (Homo sapiens, UniProt Q9NYA1); test: Evaluation of compounds as putative substrates of SK1 (absence of Sph); conditions: 50 μM compound, 250 μM ATP
SK1 [2] = target: T1, SK1; test: SK1 activity assay (inhibition; [γ-32P]ATP, recombinant SK1 in HEK 293 cell lysates); format: biochemical; design: made in house; host or cells: HEK 293 cells (lysate, not purified); conditions: for SK1 inhibition (in words): 3 μM Sph, 250 μM ATP (Figure 3); for isoform selectivity SK1 vs SK2 (in words): comparison of inhibition of SK1 (3 μM Sph) and SK2 (10 μM Sph)
SK2 [3] = target: T2, SK2 (Homo sapiens, UniProt Q9NRA0); test: SK2 activity assay (inhibition; [γ-32P]ATP, purified SK2); format: biochemical; conditions: 50 μM compound, 10 μM Sph, 250 μM ATP (Figure 3)
T2 sequence (Q9NRA0 1-654): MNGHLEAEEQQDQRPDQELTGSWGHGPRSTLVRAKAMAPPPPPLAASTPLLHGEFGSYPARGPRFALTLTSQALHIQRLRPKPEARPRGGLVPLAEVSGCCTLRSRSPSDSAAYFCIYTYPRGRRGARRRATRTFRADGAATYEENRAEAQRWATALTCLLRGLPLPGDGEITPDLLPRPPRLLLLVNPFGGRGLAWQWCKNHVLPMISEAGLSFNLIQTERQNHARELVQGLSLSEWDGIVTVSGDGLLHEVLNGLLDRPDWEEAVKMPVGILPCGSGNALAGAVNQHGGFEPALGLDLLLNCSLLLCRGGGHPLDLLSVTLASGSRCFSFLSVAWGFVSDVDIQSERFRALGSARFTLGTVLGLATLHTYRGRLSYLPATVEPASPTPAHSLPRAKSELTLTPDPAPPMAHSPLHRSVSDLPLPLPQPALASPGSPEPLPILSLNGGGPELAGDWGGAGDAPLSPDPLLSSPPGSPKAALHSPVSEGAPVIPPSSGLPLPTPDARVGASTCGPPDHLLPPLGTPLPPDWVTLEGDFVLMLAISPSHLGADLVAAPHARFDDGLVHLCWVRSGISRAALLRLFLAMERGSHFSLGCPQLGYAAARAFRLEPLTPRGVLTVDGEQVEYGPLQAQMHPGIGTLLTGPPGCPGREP
Protocol: To examine SAR among a panel of related compounds, we prepared a series of analogues bearing a 4-hydroxypiperidinyl group but varied the linker length between the aryl group and the piperidine. We also assessed the role of the alkyl substituent in the aryl group.
Figure 3 Effect of inhibitors on SK1 or SK2 activity. SK1 activity was measured using 3 μM Sph and 250 μM ATP. SK2 activity was assayed using 10 μM Sph and 250 μM ATP (n = 3 for each compound; results are expressed as % of control ± SD). […]. The control is 100% and equals activity against Sph alone.
Sphingosine kinase activity assays.
For SK2 activity assays, sphingosine (Sph) was complexed with fatty acid free bovine serum albumin (final concentration, 0.2 mg/mL) in reaction buffer 1 containing 20 mM Tris (pH 7.4), 1 mM EDTA, 1 mM Na3VO4, 40 mM β−glycerophosphate, 1 mM NaF, 0.007% (v/v) β6mercaptoethanol, 20% (v/v) glycerol, 10 µg/mL aprotinin, 10 µg/mL soybean trypsin inhibitor, 1 mM PMSF, 0.5 mM 46 deoxypyridoxine, and 400 mM KCl. Inhibition of SK2 activity was determined by incubating 37 ng of purified SK2 for 30 min at 30 °C in the presence of 10 µM Sph, 250 µM of [γ632P]ATP (specific activity, 4.4×10^4 cpm/nmol) in 10 mM MgCl2, and varying concentrations of the inhibitors dissolved in DMSO or control (5% v/v DMSO). […]
Compounds bearing hydroxyl groups were assessed for their ability to act as substrates for SK1 and […]

SK2 [4] = target: T2, SK2; test: Evaluation of compounds as putative substrates of SK2 (absence of Sph); conditions: 50 μM compound, 250 μM ATP, absence of Sph (Fig. S1)

T1 sequence (Q9NYA1 whole entry, canonical isoform): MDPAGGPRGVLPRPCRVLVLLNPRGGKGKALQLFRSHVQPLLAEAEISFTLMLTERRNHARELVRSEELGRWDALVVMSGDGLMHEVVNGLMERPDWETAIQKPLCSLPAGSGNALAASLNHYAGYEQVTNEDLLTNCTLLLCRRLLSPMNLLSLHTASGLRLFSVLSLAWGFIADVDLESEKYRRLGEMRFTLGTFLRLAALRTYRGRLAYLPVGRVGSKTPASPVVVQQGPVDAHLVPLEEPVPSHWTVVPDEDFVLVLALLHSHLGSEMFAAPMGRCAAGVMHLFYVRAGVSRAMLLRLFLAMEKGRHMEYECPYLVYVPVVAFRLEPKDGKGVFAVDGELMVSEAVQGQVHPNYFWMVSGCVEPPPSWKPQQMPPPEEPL

SK1 inhibition (in words) (SK1 [2]; 50 μM compound) | Molecule | other results
– | CCCCCCCCCCCCc1ccc(CCN2CCC(O)CC2)cc1 [RB-028, 1-(4-Dodecylphenethyl)piperidin-4-ol] | substrate for SK1 (in words) (SK1 [1]): not substrates for SK1
ineffective as SK inhibitors | CCCCCc1cn(-c2ccc(CC[N+]3(C)CCCCC3)cc2)nn1.CS(=O)(=O)[O-] [RB-061, 1-Methyl-1-(4-(4-pentyl-1H-1,2,3-triazol-1-yl)phenethyl)piperidinium Methanesulfonate] | –
maintained inhibition of SK1 | CCCCCCCCc1ccc(CCN2CCC(=O)CC2)cc1 [RB-035, 1-(4-Octylphenethyl)piperidin-4-one] | isoform selectivity SK1 vs SK2 (in words) (SK1 [2]): eliminated the isoform selectivity; SK2 inhibition (in words) (SK2 [3]): increased inhibition of SK2
abolished | Cc1ccc(CCN2CCC[C@@H]2CO)cc1 [RB-039, (R)-(1-(4-Methylphenethyl)pyrrolidin-2-yl)methanol] | –
much less active | CCCCCCCCc1ccc(CCN2CCC[C@H]2CO)cc1 [RB-041, (S)-(1-(4-Octylphenethyl)pyrrolidin-2-yl)methanol] | substrate for SK2 (in words) (SK2 [4]): weak substrates for SK2
ineffective as SK inhibitors | 1-Methyl-4-(4-octylphenethyl)pyridinium Iodide [RB-052] | –
did not significantly alter | CCCCCCCCc1ccc(CN2CCC(O)CC2)cc1 [RB-023, 1-(4-Octylbenzyl)piperidin-4-ol] | –
did not significantly alter | CCCCCCCCc1ccc(CCCCN2CCC(O)CC2)cc1 [RB-025, 1-(4-(4-Octylphenyl)butyl)piperidin-4-ol] | substrate for SK1 (in words) (SK1 [1]): not substrates for SK1
ineffective as SK inhibitors | CCCCCCCCc1ccc(C[n+]2ccc(N3CCC(C)CC3)cc2)cc1.[Br-] [RB-053, 4-(4-Methylpiperidin-1-yl)-1-(4-octylbenzyl)pyridinium Bromide] | isoform selectivity SK1 vs SK2 (in words) (SK1 [2]): moderate selectivity for SK2
ineffective as SK inhibitors | CCCCCCCCc1cn(-c2ccc(CC[N+]3(C)CCCCC3)cc2)nn1.CS(=O)(=O)[O-] [RB-062, 1-Methyl-1-(4-(4-octyl-1H-1,2,3-triazol-1-yl)phenethyl)piperidinium Methanesulfonate] | –
– | CCCCCCCCc1ccc(CCN2CCC[C@@H]2CO)cc1 [RB-040, (R)-(1-(4-Octylphenethyl)pyrrolidin-2-yl)methanol] | isoform selectivity SK1 vs SK2 (in words) (SK1 [2]): equipotent inhibitors of SK1 and SK2
diminished the potency of SK1 inhibition | CCCCCCCCc1ccc(CCN2CCC(N)CC2)cc1 [RB-032, 1-(4-Octylphenethyl)piperidin-4-amine] | isoform selectivity SK1 vs SK2 (in words) (SK1 [2]): isoform selectivity of SK1 over SK2 was retained
reduced SK1 inhibition markedly | Cc1ccc(CCN2CCC(N=[N+]=[N-])CC2)cc1 [RB-029, 4-Azido-1-(4-methylphenethyl)piperidine] | –
did not significantly alter | CCCCCCCCc1ccc(CCCN2CCC(O)CC2)cc1 [RB-024, 1-(3-(4-Octylphenyl)propyl)piperidin-4-ol] | –
ineffective as SK inhibitors | CCCCc1cn(-c2ccc(CC[N+]3(C)CCCCC3)cc2)nn1.CS(=O)(=O)[O-] [RB-060, 1-(4-(4-Butyl-1H-1,2,3-triazol-1-yl)phenethyl)-1-methylpiperidinium Methanesulfonate] | –
– | CCCCCCCCc1cn(-c2ccc(CCN3CCC(O)CC3)cc2)nn1 [RB-065] | isoform selectivity SK1 vs SK2 (in words) (SK1 [2]): highly selective SK1 inhibitor
effectively abolished | CCCCCCCCc1ccc(C(=O)NCc2ccncc2)cc1 [RB-048, 4-Octyl-N-(pyridin-4-ylmethyl)benzamide] | –
reduced SK1 inhibition markedly | CCCCCCCCc1ccc(CCN2CCC(N=[N+]=[N-])CC2)cc1 [RB-030, 4-Azido-1-(4-octylphenethyl)piperidine] | –
– | CCCCCCCCCCCCc1ccc(CCN2CCC[C@@H]2CO)cc1 [RB-042, (R)-(1-(4-Dodecylphenethyl)pyrrolidin-2-yl)methanol] | isoform selectivity SK1 vs SK2 (in words) (SK1 [2]): equipotent inhibitors of SK1 and SK2

Molecule | SK1 inhibition (in words) (SK1 [2]; 50 μM compound) | other results
CCCCCCCCc1ccc(CCN2CCC(OC)CC2)cc1 [RB-036, 4-Methoxy-1-(4-octylphenethyl)piperidine] | eliminated inhibitory activity against SK1 | –
CCCCCCCCc1ccc(CCN2CCC(F)CC2)cc1 [RB-034, 4-Fluoro-1-(4-octylphenethyl)piperidine] | eliminated inhibitory activity against SK1 | –
CCCCCCCCc1ccc(CCN2CC[C@H](O)C2)cc1 [RB-037, (S)-1-(4-Octylphenethyl)pyrrolidin-3-ol] | retained inhibitory activity against SK1 | substrate for SK2 (in words) (SK2 [4]): weak substrates for SK2
Cc1ccc(CCN2CCC(N)CC2)cc1 [RB-031, 1-(4-Methylphenethyl)piperidin-4-amine] | eliminated the inhibitory activity toward SK1 | –
CCCCCCCCc1ccc(CCN2CC[C@@H](O)C2)cc1 [RB-038, (R)-1-(4-Octylphenethyl)pyrrolidin-3-ol] | retained inhibitory activity against SK1 | –
CCCCCCCCCCCCc1ccc(CCN2CCC[C@H]2CO)cc1 [RB-043, (S)-(1-(4-Dodecylphenethyl)pyrrolidin-2-yl)methanol] | much less active; also recorded: abolished | substrate for SK2 (in words) (SK2 [4]): weak substrates for SK2
Cc1ccc(CCN2CCC(O)CC2)cc1 [RB-026, 1-(4-Methylphenethyl)piperidin-4-ol] | almost complete lack of inhibition | decrease of SK1 inhibition compared with RB-023 (SK1 [2]; 50 μM compound): more than 6 fold
CCCCCCCCCCCCc1ccc(CCN2CCC(N)CC2)cc1 [RB-033, 1-(4-Dodecylphenethyl)piperidin-4-amine] | eliminated the inhibitory activity toward SK1 | –
4-(4-Octylphenethyl)pyridine [RB-051] | effectively abolished | –

Reference: publication PMC3848335, “Structure–Activity Relationships and Molecular Modeling of Sphingosine Kinase Inhibitors” (Journal of Medicinal Chemistry, 2013)
